Data published in ChEMBL document CHEMBL3301361, “Experimental in vitro DMPK and physicochemical data on a set of publicly disclosed compounds”.
Residues, ends and D or L forms follow the SMILES beside them.

Assay: in vitro
Settings: human, plasma, PPB

| Structure (SMILES) | fraction unbound at 5 h |
| --- | --- |
| COc1cc(OC)c(S(=O)(=O)N2c3ccccc3Oc3ccccc32)cc1NC(=O)Cc1ccnc(F)c1 | 0.0099 |
| O=C(Nc1ccccc1-c1cn2c(CN3CCNCC3)csc2n1)c1cnc2ccccc2n1 | 0.0099 |
| Cc1cc(-c2cc(=O)[nH]c(NCc3cccc4ccccc34)n2)ccn1 | 0.0025 |
| COc1ncc(-c2cccc3c2C[C@H](NC(=O)c2ccc(OCCC(F)(F)F)nc2)CO3)cn1 | 0.0133 |
| CN(C)c1cc(NC(=O)Nc2cccc(Cl)c2)c2ccccc2n1 | 0.0014 |
| COc1ccc2ncc(=O)n(CCN3CC[C@@H](NCc4ccc5c(n4)NC(=O)CO5)[C@H](OC)C3)c2c1 | 0.179 |
| CCCCCCCC(=O)N[C@@H](CCN)C(=O)N[C@H](C(=O)N[C@@H](CCN)C(=O)N[C@H]1CCNC(=O)[C@H]([C@@H](C)O)NC(=O)[C@H](C)NC(=O)[C@H](CCN)NC(=O)[C@H](CC(C)C)NC(=O)[C@@H](Cc2ccccc2)NC(=O)[C@H](CCN)NC1=O)[C@@H](C)O (HELM PEPTIDE1{[CCCCCCCC(=O)[*:2]].[Dab].T.[Dab].[Dab].[Dab].[dF].L.[Dab].A.T}$PEPTIDE1,PEPTIDE1,5:R3-11:R2$$$V2.0) | 0.132 |
| O=C(O)/C=C/c1cccc(-c2cnc3[nH]ccc3c2)c1 | 0.0219 |
| CC(C)COc1ccc(-c2cc(=O)[nH]c(N)n2)cc1C#N | 0.0409 |
| O=c1cc(N2CCOCC2)nc2n(Cc3cccc(F)c3)ccn12 | 0.22 |
| Cc1ccc(/C(=C\CN2CCCC2)c2ccccn2)cc1 [TRIPROLIDINE] | 0.645 |
| CCNC(=O)c1cc2c(-n3nc(C(F)(F)F)cc3C)c(-c3cncc(C(=O)O)c3)cnc2[nH]1 | 0.454 |
| N#Cc1c(-c2ccc(-c3cccnc3)cc2)nc2ccncc2c1O | 0.007 |
| CCOC(=O)[C@H](CCc1ccccc1)N[C@@H](C)C(=O)N1Cc2ccccc2C[C@H]1C(=O)O | 0.0418 |
| CCCc1cc(C2=N[C@@H](C(=O)NO)CO2)cc(OC)c1OC | 0.0568 |
| CCn1cc(CNC(=O)c2cc(-c3ccc(C)cc3)nc3ccc(Br)cc23)c(C)n1 | 0.0011 |
| CCCNC(=O)c1cc2c(-n3ccc(C(F)(F)F)n3)c(-c3cncc(C(=O)O)c3)cnc2[nH]1 | 0.0768 |

| Structure (SMILES) | fraction unbound at 5 h |
| --- | --- |
| NC(=O)[C@H](Cc1ccccc1)NC(=O)OCc1ccccc1 | 0.19 |
| CN(CC(=O)O)NC(=O)C[C@H](N)C[C@@H](O)CN [NEGAMYCIN] | 0.874 |
| c1cc(-c2ccc3nc(Nc4ccc(OCCN5CCCC5)cc4)ncc3c2)ccn1 | 0.028 |
| Cc1sc2c(c1C)c(=O)n(-c1ccc(F)cc1)c(=O)n2CC(=O)NCc1ccco1 | 0.0268 |
| [H]/N=C(/N)c1ccc(NCc2nc3cc(C(=O)N(CCC(=O)O)c4ccccn4)ccc3n2C)cc1 [DABIGATRAN] | 0.529 |
| Cc1csc(N)c1C(N)=O | 0.324 |
| Cc1cnc(Nc2cc(N3CCOCC3)nc(N[C@@H](C)c3ccc(F)cn3)n2)s1 | 0.0262 |
| CC(=O)Nc1ccc2c(c1)N(c1cc(NC3CC3)n3ncc(C#N)c3n1)CCC2 | 0.0262 |
| CC(C)(C)Oc1ccc(C(=O)Nc2ccc3sc(CO)nc3c2)cc1 | 0.051 |
| NC1=NC(c2ccc(F)cc2)Cc2ccc(F)cc21 (configuration not stated) | 0.329 |
| C[C@H]1O[C@@H](n2cnc3c(N)nc(OCC4CC45CC5)nc32)[C@H](O)[C@@H]1O (some centres not stated) | 0.249 |
| COc1ccc2ncc(=O)n(CCN3CC[C@@H](NCc4cc5c(cn4)OCCO5)[C@H](O)C3)c2c1 | 0.179 |
| O=C(NCC12CC3CC(CC(C3)C1)C2)c1cc(OCCNCCCO)ncc1Cl | 0.11 |
| CN[C@@H](C)C(=O)N[C@H](C(=O)N1CCC[C@H]1C(=O)N[C@@H]1CCCc2ccccc21)C(C)(C)C | 0.0801 |
| O[C@H](c1cc(C(F)(F)F)nc2c(C(F)(F)F)cccc12)[C@@H]1CCCCN1 [(R,S)-MEFLOQUINE] | 0.0214 |
| CNc1c(Br)cnc2[nH]c(-c3ccc(OCCN4CCOCC4)cc3)nc12 | 0.0149 |

Further lines, results first:

| fraction unbound at 5 h | Structure (SMILES) |
| --- | --- |
| 0.0015 | O=C(O)[C@@H](c1ccc(OCc2ccc3ccccc3n2)cc1)C1CCCC1 [VELIFLAPON] |
| 0.392 | COCCOc1cc2ncc(C(N)=O)c(Nc3cccc(Cl)c3F)c2cc1N1CCN(C)CC1 |
| 0.0171 | CCOc1cc2ncc(C(N)=O)c(Nc3cccc(Cl)c3Cl)c2cc1N1CCN(CCOC)CC1 |
| 0.0064 | O=C(O)C(c1ccccc1)N1CCO[C@H](CN2CCC(Oc3ccc(Cl)c(Cl)c3)CC2)C1 (some centres not stated) |
| 0.0139 | COc1cccc(C(=O)N2C(C(=O)O)CSC2c2ccccc2Cl)c1 (configuration not stated) |
| 0.0343 | CCOc1cc2ncc(C(N)=O)c(Nc3ccc(F)c(Cl)c3)c2cc1N1CCN(C)CC1 |
| 0.54 | N=C(N)c1ccc(CNC(=O)C2(NC(=O)[C@H](NCC(=O)O)C3CCCCC3)Cc3ccccc3C2)cc1 |
| 0.0437 | CN1CCN(c2cc3c(Nc4cccc(Cl)c4Cl)c(C(N)=O)cnc3cc2F)CC1 |
| 0.0072 | O=C(COc1cccc(Cl)c1)NC1CCN(Cc2ccn(-c3ccc(C(F)(F)F)cc3)c2)CC1 |
| 0.0229 | O=C(CN1CCCC1)N1c2ccccc2Sc2ccc(C(F)(F)F)cc21 |
| 0.0383 | CCOc1cc2nnc(C(N)=O)c(Nc3ccc(F)cc3F)c2cc1N1CCN(C)CC1 |
| 0.103 | COCCOc1cc2ncc(C(N)=O)c(Nc3cccc(Cl)c3Cl)c2cc1N1CCN(C)CC1 |
| 0.0676 | O=C(COc1ccccc1Cl)c1ccc[nH]1 |
| 0.0488 | CC(C)Oc1cc2ncc(C(N)=O)c(Nc3cccc(Cl)c3F)c2cc1N1CCN(C)CC1 |
| 0.0409 | CCOC(=O)[C@H](CCc1ccccc1)N[C@H]1CCc2ccccc2N(CC(=O)O)C1=O [BENAZEPRIL] |
| 0.0139 | CC(C)Oc1cc2ncc(C(N)=O)c(Nc3cccc(Cl)c3Cl)c2cc1N1CCN(C)CC1 |
| 0.0457 | CCOc1cc2ncc(C(N)=O)c(Nc3ccc(F)cc3F)c2cc1N1CCN(CC)CC1 |
| 0.0736 | CCOc1cc2ncc(C(N)=O)c(Nc3cc(F)ccc3F)c2cc1N1CCN(C)CC1 |
| 0.0568 | Cc1cccc(Oc2cc(S(=O)(=O)N3CCC[C@H](n4cc(C)c(=O)[nH]c4=O)C3)ccc2C(=O)O)c1 |
| 0.0163 | CCOc1cc2ncc(C(N)=O)c(Nc3cccc(Cl)c3Cl)c2cc1N1CCCN(C)CC1 |
| 0.0383 | Cc1cccc(Oc2cc(CN3CCC[C@H](n4cc(C)c(=O)[nH]c4=O)C3)ccc2C(=O)O)c1 |
| 0.0262 | Cc1cn([C@H]2CCCN(S(=O)(=O)c3cccc(Oc4ccccc4)c3)C2)c(=O)[nH]c1=O |
| 0.0836 | CCOc1cc2ncc(C(N)=O)c(Nc3ccc(F)cc3F)c2cc1N1CCOCC1 |
| 0.0114 | O=C(O)COc1ccccc1N1CCC(CN2CCC(Oc3ccc(Cl)c(Cl)c3)CC2)CC1 |
| 0.0146 | CCOc1cc2ncc(C(N)=O)c(Nc3cccc(Cl)c3Cl)c2cc1N1CCN(C(C)C)CC1 |
| 0.0209 | COc1cc2ncc(C(N)=O)c(Nc3cccc(Cl)c3Cl)c2cc1NCCN1CCCCC1 |
| 0.262 | CN[C@@H](C)C(=O)N[C@H](C(=O)N[C@H]1CCCCN(CCc2ccccc2)C1)C1CCCCC1 |
| 0.78 | CC(C(=O)OC1CC[N+](C)(C)CC1)(c1ccccc1)N1CCCCC1 (configuration not stated) |
| 0.0437 | COc1cc(OC)c(S(=O)(=O)N2c3ccccc3CC2C)cc1NC(C)=O (configuration not stated) |
